The source of these data is patent publication US9127024B2 (Intrexon Corporation, priority 2013, dated 2015).

One series in a line: in vivo. The note with it: female, Sprague Dawley, rat, po, 10 mg/kg.
The target of series [1] is RheoSwitch® (CHO-K1_RS-1 cells, firefly Luciferase reporter) (Choristoneura fumiferana, UniProt O77240). The series is described as follows: in vitro gene switch assay (fLUC Luciferase expression, potency screen). It is filed as cell-based. The note with it: read-out: fLUC assay EC50, 24 hours with compound, 25 μM to 2.5 pM, figure in parentheses after a value not defined. The source says:
Gene switch assays are disclosed, e.g., in U.S. Pat. Nos. 8,076,517; 7,456,315; 7,304,161; and 6,258,603.
CHO-K1 cells were stably transfected with a plasmid (RS-1, FIG. 1) coding for firefly Luciferase (fLUC) under the control of the RheoSwitch® resulting in the stable cell line CHO-K1_RS-1. A master cell bank was created containing approximately 100 vials at 5×10^6 cells per vial. One vial of CHO-K1_RS-1 was thawed and cultured for two weeks prior to each in vitro potency screening.
Twenty-four (24) hours prior to treatment with the control and test compounds the CHO-K1_RS-1 cells were seeded into white-opaque 384-well cell culture plates at 3,600 cells per well in 30 μl of culture medium. The cells were incubated in a humidified CO2 incubator at 37° C. until compound treatment.
Compounds were prepared at 25 mM in 100% dry DMSO and stored at room temperature in sealed 1 ml tubes prior to subsequent dilution and assay. On the day of cell treatment the tubes containing the control and test compounds were sorted and the ligands transferred to a 96-well polypropylene plate for subsequent dilution. The compounds were diluted in 100% dry DMSO in an 8-point, 10-fold dilution series ranging from 25 mM to 2.5 nM using the Biomek FX automated liquid handler.
The diluted compounds were then transferred to each well of 384-well polypropylene plate in quadruplicate resulting in a single 384-well plate with four replicates of each compound dilution in a different quadrant of the plate. Each well on the 384-well plate received 20 μl of diluted compound. The 384-well plates containing diluted compound and the plates containing cells in culture were loaded onto the Biomek FX and 30 nl of compound was delivered to each well containing cells using a 384-pin V&P Scientific Pin Tool. The resulting 1000-fold dilution (30 nl to 30 μl) generated a final dosing range of 25 μM to 2.5 pM in 0.1% DMSO. Two replicate plates were produced to supply a dedicated plate for the Luciferase expression assay and the APH cell viability assay.
The cells were incubated with the compound for 24 hours in a humidified CO2 incubator at 37° C. Following incubation, the cells were assayed for Luciferase expression (fLUC assay) using the Steady Glo assay from Promega. Cells were equilibrated to room temperature for 15 minutes prior to reagent addition. Thirty micro liters (30 μl) of assay reagent was added to each well of the 384-well plate using the Biomek FX. The reagent was incubated with the cells for 10-120 minutes prior to reading on a Molecular Devices Spectramax L luminometer. The assay reagents were prepared as per the manufacturer's instructions.
The Luciferase expression data was normalized to the baseline signal from cells treated with DMSO alone. The ratio of signal from treated cells to vehicle-treated cells was plotted and non-linear regress was performed using Graph Pad Prism software. EC50, (log)EC50 and Hill slope data was generated. Reporter gene expression, e.g., luciferase expression, serves as a proxy for the expression of a gene of interest. See, e.g., US 2009/0123441 and WO 2011/119773.

Series [2] in a line: Pharmacokinetic (PK) study, oral gavage, plasma LC-MS/MS. The conditions noted are these: female Sprague Dawley rats, oral gavage 10 mg/kg, Capryol 90/Triacetin (1:1, v/v); for Clearance: oral clearance; for AUC(0-t): AUC0−t.
Procedure: (§1) Female Sprague Dawley rats were fasted for at least 8 hours (overnight) prior to oral dosing of the compound via gavage (10 mg/kg; vehicle=2 mg/mL of Capryol 90/Triacetin (1:1, v/v); 3 animals/compound) and weighed prior to dosing. The correct volume of the appropriate formulation was administered based on that day's (animal) body weight. Body weight, dose volume, and dosing time was recorded for each animal. Animals were not fed for at least 4 hours following activator ligand administration.
(§2) Approximately 200 μL/blood sample was collected from the catheter sample points in EDTA tubes at each time point from each animal. The exact time of blood collection was recorded for each animal Blood samples were held at 4° C. (wet ice) starting immediately after collection and were centrifuged within 15 minutes from the collection for 12 minutes at 2500 rpm. After centrifugation, plasma samples were stored at ^−80° C. until assay. Sample times were as follows: Day 0: 0, 0.5, 1, 2, 3, 4, 6 and 8 hours; Day 1: 24 hours.
(§3) LC-MS/MS Method: Liquid chromatography tandem mass spectrometry with protein precipitation method was used to quantify the compound in rat plasma samples collected from all animals dosed with the ligand. Linearity range was from 1 ng/mL to 1000 ng/mL, with correlation coefficient for calibration curves above 0.99 and analyte quantified within ±15% of target at all calibrator concentrations.
(§4) The plasma ligand concentration was calculated by extrapolating the area under the curve values for the samples from the standard curve generated by the Analyst® software program. The ng/mL values for the plasma samples representing all the animals were used to generate the pharmacokinetic (PK) parameters.
[3] abbreviates: listed as Cpd. No. 13 (Lot # 1), 10 mg/kg.
Setting [4] is: listed as Cpd. No. 13 (Lot # 2), 10 mg/kg.
[5] abbreviates: female, Sprague Dawley, rat, po, 10 mg/kg, Tmax.
Setting [6] is: female, Sprague Dawley, rat, po, 10 mg/kg, half-life.
Setting [7] is: female, Sprague Dawley, rat, po, 10 mg/kg.
[8] abbreviates: female, Sprague Dawley, rat, po, 10 mg/kg, Cmax.
Where [9] appears, read: listed as Cpd. No. 59 (Lot # 1), 10 mg/kg.
[10] abbreviates: listed as Cpd. No. 59 (Lot # 2), 10 mg/kg.

RheoSwitch® (CHO-K1_RS-1 cells, firefly Luciferase reporter), sequence (O77240 1-513): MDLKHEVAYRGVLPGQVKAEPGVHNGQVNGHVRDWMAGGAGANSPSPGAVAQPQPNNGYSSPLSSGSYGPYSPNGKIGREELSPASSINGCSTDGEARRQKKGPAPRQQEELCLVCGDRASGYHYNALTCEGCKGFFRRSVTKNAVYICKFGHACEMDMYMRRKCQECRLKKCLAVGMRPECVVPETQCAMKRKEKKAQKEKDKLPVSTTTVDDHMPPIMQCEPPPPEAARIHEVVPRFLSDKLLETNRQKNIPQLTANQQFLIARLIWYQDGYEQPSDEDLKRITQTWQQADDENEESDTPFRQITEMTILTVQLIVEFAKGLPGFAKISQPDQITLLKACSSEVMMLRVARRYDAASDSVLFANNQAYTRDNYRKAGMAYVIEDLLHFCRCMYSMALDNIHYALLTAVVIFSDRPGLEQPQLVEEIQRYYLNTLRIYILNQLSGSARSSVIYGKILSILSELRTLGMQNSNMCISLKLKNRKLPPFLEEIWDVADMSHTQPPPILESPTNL
Procedure for in vivo: as §1, §2, §3, §4

For orientation: AUC(0-t) means exposure summed from dosing to a finite time, without extrapolation to infinity. Low values mean low exposure, high ones high exposure. A word on the Cmax: it is the highest concentration seen after dosing. A word on the Tmax: it is the time from dosing to the highest level. `Cc1cc(C)cc(C(=O)N(NC(=O)c2ccc3c(c2C)OCCO3)C(C)(C)C)c1` [Cpd. C] registered an AUC(0-t) in the series “in vivo” (AUC0−t) of 510 ng·h/mL. Also, the maximum concentration (Cmax) in the series “in vivo” (Cmax) was determined as 112 ng/mL. Also, in “in vivo” (Tmax), the Tmax is 2.5 h.
The EC50 is the concentration needed to bring the measured effect to its halfway point. Usually half-life stands for the time needed for the level to fall by half in the phase considered. A high value points to slow decline. `CCC[C@@H](N(NC(=O)c1ccc(B(O)O)cc1F)C(=O)c1cc(C)cc(C)c1)C(C)(C)C` [Cpd. No. 13, (R)-(4-(2-(3,5-dimethylbenzoyl)-2-(2,2-dimethylhexan-3-yl)hydrazinecarbonyl)-3-fluorophenyl)boronic acid]: the EC50 in series [1] turned out to be 64 nM. Also, in series [2] (setting [3]), the “AUC0−t” value is 10579 ng·h/mL, the highest concentration (Cmax) is on record as 1415 ng/mL and the Clearance came to 15.6 mL/min/kg. Moreover, in series [2] (setting [4]), the “AUC0−t” value turned out to be 60407 ng·h/mL, the Cmax came out at 7060 ng/mL, the Tmax amounted to 3.3 h and the half-life is 4.3 h. Moreover, the Clearance in series [2] (setting [4]) came to 2.82 mL/min/kg. The Tmax in series [2] (setting [5]) was determined as 2.7 h. The compound further showed a half-life in series [2] (setting [6]) of 3.2 h.
On to `CCC[C@@H](N(NC(=O)c1ccc(B(O)O)c(F)c1)C(=O)c1cc(C)cc(C)c1)C(C)(C)C` [Cpd. No. 22, (R)-(4-(2-(3,5-dimethylbenzoyl)-2-(2,2-dimethylhexan-3-yl)hydrazinecarbonyl)-2-fluorophenyl)boronic acid], for which, in series [1], the EC50 was determined as 105 nM. The compound further came in with an AUC(0-t) in series [2] (setting [7]) of 25000 ng·h/mL. The compound further came in with a Cmax in series [2] (setting [8]) of 2730 ng/mL. For the same compound, in series [2] (setting [5]), the Tmax stood at 3 h. In addition, the half-life in series [2] (setting [6]) was 5.6 h. This compound returned a Clearance in series [2] of 6.78 mL/min/kg.
As to `Cc1cc(C)cc(C(=O)N(NC(=O)c2ccc3c(c2F)B(O)OC3)C(C)(C)C)c1` [Cpd. No. 58, N′-(tert-butyl)-N′-(3,5-dimethylbenzoyl)-7-fluoro-1-hydroxy-1,3-dihydrobenzo[c][1,2]oxaborole-6-carbohydrazide], the EC50 in series [1] was 640 nM. Besides, the area under the curve AUC(0-t) in series [2] (setting [7]) came out at 30800 ng·h/mL. For the same compound, the Cmax in series [2] (setting [8]) came out at 2650 ng/mL. Further, the time to peak (Tmax) in series [2] (setting [5]) is 3 h. For the same compound, in series [2] (setting [6]), the half-life was 15.4 h. The compound also displayed a Clearance in series [2] of 3.57 mL/min/kg.
Take `CC[C@@H](N(NC(=O)c1ccc2c(c1F)B(O)OC2)C(=O)c1cc(C)cc(C)c1)C(C)(C)C` [Cpd. No. 59, (R)—N′-(3,5-dimethylbenzoyl)-N′-(2,2-dimethylpentan-3-yl)-7-fluoro-1-hydroxy-1,3-dihydrobenzo[c][1,2]oxaborole-6-carbohydrazide]: in series [1], the concentration for a half-maximal effect (EC50) stood at 108 nM. Besides, in series [2] (setting [9]), the “AUC0−t” value was 127700 ng·h/mL, the Tmax amounted to 5 h and the Clearance stood at 1.4 mL/min/kg. Also, in series [2] (setting [10]), the “AUC0−t” value was found to be 300721 ng·h/mL, the Cmax is reported as 18833 ng/mL, the Tmax amounted to 1.8 h and the half-life stood at 10.0 h. The compound also yielded a Clearance in series [2] (setting [10]) of 0.538 mL/min/kg. Also, the peak level in series [2] (setting [8]) (Cmax) was 11200 ng/mL. This compound also gave a half-life in series [2] (setting [6]) of 5.2 h.
As for `CC[C@@H](N(NC(=O)c1ccc2c(c1F)COB2O)C(=O)c1cc(C)cc(C)c1)C(C)(C)C` [Cpd. No. 67, (R)—N′-(3,5-dimethylbenzoyl)-N′-(2,2-dimethylpentan-3-yl)-4-fluoro-1-hydroxy-1,3-dihydrobenzo[c][1,2]oxaborole-5-carbohydrazide], in series [1], the EC50 is 309 nM. In series [2] (setting [7]), the AUC(0-t) is 24500 ng·h/mL. For the same compound, the concentration in series [2] (setting [8]) peaked (Cmax) at 3320 ng/mL. The Tmax in series [2] (setting [5]) is 3 h. This compound showed a half-life in series [2] (setting [6]) of 5.5 h. Further, the Clearance in series [2] was 6.63 mL/min/kg.
